# Measured values from patent US20070196886A1 (priority 2004, published 2007).
# Read-outs that look alike come from different tables or passages of the source.
# Tests used:
# [1] = target: T1, [Ile931]β′ RNAP holoenzyme (Escherichia coli, UniProt P0A8T7+P0A8V2, T931I); test: Transcription assays with RNAP derivative bearing Thr931→Ile substitution in β′; assay type: biochemical
# T1 construct: [Ile931]β′ RNAP core and holoenzyme were prepared from strain 397c; hexahistidine (C); made in house; host or cells: E. coli strain 397c (rpoC^ts397) transformed with a pRL663 derivative
# Description: Following 15 min at 37° C., 0.5 μl 1 mg/ml heparin was added, and, following a further 2 min at 37° C., RNA synthesis was initiated by addition of 2 μl 5 mM ApA and 125 μM (or 250 μM, 500 μM, and 1 mM) each of [α-^32P]UTP (0.6 Bq/fmol), ATP, CTP, GTP. Following 5 min at 37° C., reactions were terminated by addition of 10 μl 80% formamide, 10 mM EDTA, 0.04% bromophenol blue, and 0.04% xylene cyanol. Products were heated 10 min at 90° C., resolved by urea-PAGE (Sambrook and Russel, (2001)), and quantified using a storage-phosphor scanner (Storm 860; Molecular Dynamics). Identities of tri- and tetranucleotide abortive products were defined as in Borowiec and Gralla, (1985) J. Mol. Biol. 184, 587-598). Data were fit to full-competitive, partial-competitive, full-noncompetitive, partial-noncompetitive, full-uncompetitive, partial-uncompetitive, full-mixed, and partial-mixed models of inhibition using the Fit-To-Model feature of the SigmaPlot Enzyme Kinetics Module (SPSS).
# [2] = target: RNAP holoenzyme (Escherichia coli, UniProt P0A8T7+P0A8V2); assay type: biochemical; conditions: FIG. 3F
# Description: Following 15 min at 37° C., 0.5 μl 1 mg/ml heparin was added, and, following a further 2 min at 37° C., 1 μl of 0.25-5 mM (γ-AmNS)UTP (Molecular Probes) was added, and reaction mixtures were transferred to sub-micro fluorometer cuvettes (Starna Cells). Following 2 min at 37° C., RNA synthesis was initiated by addition of 2.5 μl 10 mM ApA, and fluorescence emission intensity was monitored 5 min at 37° C. [excitation wavelength=360 nm and emission wavelength=500 nm; excitation and emission slit widths=4 nm; QuantaMaster QM1 spectrofluorometer (PTI)]. The quantity of UMP incorporated into RNA was determined from the quantity of (γ-AmNS)UTP consumed, which, in turn, was calculated as follows (Schlageck et al., (1979) J. Biol. Chem. 254, 12074-12077): (γ-AmNS)UTPconsumed=[(γ-AmNS)UTP0](Ft−F0)/(12.4×F0) (1) where (γ-AmNS)UTP0 is the quantity of (γ-AmNS) UTP at time 0, F0 is the fluorescence emission intensity at time 0, and Ft is the fluorescence emission intensity at time t. Data were fit to full-competitive, partial-competitive, full-noncompetitive, partial-noncompetitive, full-uncompetitive, partial-uncompetitive, full-mixed, and partial-mixed models of inhibition as in the preceding section.
substance,measurement,setting,value
Microcin J25 [MccJ25],inhibition upon substitution of residue 931 of the RNAP β′ subunit,[1],overcome completely
same,Vmax,[2]; at 1 μM MccJ25,5.3±2.8 mol/mol template/min
same,Vmax,[2]; at 10 μM MccJ25,2.4±2.9 mol/mol template/min
